Laboratory results taken from US7452997B2 (priority 2004, dated 2008).
Where two headings read alike, the source gives them in different places.

How the values were obtained:
human CB1 receptor [1] = target: T1, human CB1 receptor (Homo sapiens, UniProt P21554); experiment: biochemical; type: binding
T1 construct: expressed in transfected cells; host or cells: SK-N-MC cells, stably transfected with pcDNA3 CB-1 (human); semi-purified membrane pellet
Method in brief: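 Membranes from SK-N-MC cells stably expressing human CB1, incubated 90 minutes at 30° C in Tris-HCl buffer with MgCl2, EDTA and fatty acid free BSA, pH 7.5. Bound counts collected by filtration and scintillation counting; IC50 from linear regression over varying compound concentrations.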

human CB2 receptor [2] = target: T2, human CB2 receptor (Homo sapiens, UniProt P34972); experiment: Binding assay, cannabinoid CB2 receptor ([3H]-CP-55,940 displacement); conditions: Cannabinoid CB2 Receptor Binding IC50, human CB2 receptor, SK-N-MC cell membranes, radioligand CP-55,940 0.2 nM
T2 sequence (P34972 whole entry): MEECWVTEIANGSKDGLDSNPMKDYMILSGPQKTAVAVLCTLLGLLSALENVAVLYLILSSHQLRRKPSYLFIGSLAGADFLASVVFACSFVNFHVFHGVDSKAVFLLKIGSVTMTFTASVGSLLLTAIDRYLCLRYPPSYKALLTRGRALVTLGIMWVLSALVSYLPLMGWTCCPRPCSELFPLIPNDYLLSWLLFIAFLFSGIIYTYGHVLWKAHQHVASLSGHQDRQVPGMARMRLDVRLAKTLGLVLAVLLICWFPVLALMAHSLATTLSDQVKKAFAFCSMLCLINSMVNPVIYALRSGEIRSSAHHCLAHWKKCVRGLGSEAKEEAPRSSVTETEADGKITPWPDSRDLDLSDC
Method in brief: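 Membranes from SK-N-MC cells stably expressing human CB2, incubated with test compound and 0.2 nM [3H]-CP-55,940 for 90 min at 30 °C in Tris buffer pH 7.5 with fatty-acid-free BSA. Nonspecific binding defined with 10 uM WIN 55,212; filtration and scintillation counting, IC50 by linear regression.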

human CB1 receptor [3] = target: T1, human CB1 receptor; experiment: Functional cell-based assay, CB1 receptor mediated change in CRE β-gal expression (agonist / inverse agonist)
Description: (§1) Functional Cell-Based Assay for CB1 or CB2 Agonist and Inverse Agonist Effects on Intra-Cellular Adenylate Cyclase Activity
(§2) The CB1 and CB2 receptors are G-protein coupled receptors (GPCR) which influence cell function via the Gi-protein. These receptors modulate the activity of intracellular adenylate cyclase which in turn produces the intracellular signal messenger cyclic-AMP (cAMP).
(§3) At baseline, or during non-ligand bound conditions, these receptors are constitutively active and tonically suppress adenylate cyclase activity. The binding of an agonists causes further receptor activation and produces additional suppression of adenylate cyclase activity. The binding of an inverse agonist inhibits the constitutive activity of the receptors and results in an increase in adenylate cyclase activity.
(§4) By monitoring intracellular adenylate cyclase activity, the ability of compounds to act as agonists or inverse agonists can be determined.
(§5) Test compounds were evaluated in SK-N-MC cells which, using standard transfection procedures, were stably transfected with human cDNA for pcDNA3-CRE β-gal and pcDNA3 CB1 receptor (human) or pcDNA3 CB2 receptor (human). By expressing CRE β-gal, the cells produced β-galactosidase in response to CRE promoter activation by cAMP. Cells expressing CRE β-gal and either the human CB1 or CB2 receptor will produce less β-galactosidase when treated with a CB1/CB2 agonist and will produce more β-galactosidase when treated with a CB1/CB2 inverse agonist.
(§6) The cells were grown in 96-well plates under standard cell culture conditions at 37° C. in a 5% CO2 atmosphere. After 3 days, the media was removed and a test compound in media (wherein the media was supplemented with 2 mM L-glutamine, […] sodium pyruvate, 0.1% low fatty acid FBS (fetal bovine serum) and antibiotics) was added to the cell. The plates were incubated for 30 minutes at 37° C. and the plate cells were then treated with forskolin over a 4-6 hour period, then washed and lysed. The β-galactosidase activity was quantitated using commercially available kit reagents (Promega Corp. Madison, Wis.) and a VMAX Plate Reader (Molecular Devices, Inc).
(§7) The change in β-galactosidase activity was determined by setting a vehicle treated cell's activity value at 100% and expressing the β-galactosidase activity measured in a corresponding compound treated cell as a percent of the vehicle treated cell activity.
(§8) The EC50 values for compounds tested were calculated by linear regression and were obtained from studies in which varying compound concentrations were used.

human CB2 receptor [4] = target: T2, human CB2 receptor; experiment: Functional cell-based assay, CB2 receptor mediated change in CRE β-gal expression (agonist / inverse agonist); conditions: SK-N-MC cells, forskolin
Description: as §1, §2, §3, §4, §5, §6
For cells expressing CRE β-gal and the CB2 receptor, CB2 agonists reduced β-galactosidase activity in a dose-dependent manner and CB2 inverse agonists increased β-galactosidase activity in a dose-dependent manner.
as §7, §8

[5] = inverse agonist, read-out: CB2 Receptor Functional Inverse Agonist EC50

T1 sequence (P21554 whole entry): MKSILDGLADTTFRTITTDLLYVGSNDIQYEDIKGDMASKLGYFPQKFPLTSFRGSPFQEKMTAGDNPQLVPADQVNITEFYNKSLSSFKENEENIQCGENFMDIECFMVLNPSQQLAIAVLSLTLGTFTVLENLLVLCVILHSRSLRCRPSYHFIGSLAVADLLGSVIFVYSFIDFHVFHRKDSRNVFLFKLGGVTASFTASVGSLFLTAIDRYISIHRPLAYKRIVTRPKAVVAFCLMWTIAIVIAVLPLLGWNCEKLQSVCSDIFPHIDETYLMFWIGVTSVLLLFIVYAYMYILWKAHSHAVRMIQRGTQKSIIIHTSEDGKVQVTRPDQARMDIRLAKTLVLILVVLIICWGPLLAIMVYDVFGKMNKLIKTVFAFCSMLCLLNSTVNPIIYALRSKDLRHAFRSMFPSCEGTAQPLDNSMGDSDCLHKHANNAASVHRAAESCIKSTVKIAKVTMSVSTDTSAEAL

SMILES	IC50 (human CB1 receptor [1])	IC50 (human CB2 receptor [2])	EC50 (human CB1 receptor [3])	EC50 (human CB2 receptor [4]; agonist, read-out: CB2 Receptor Functional Agonist EC50)	EC50 (human CB2 receptor [4]; [5])
CCOC(=O)C1C2CCC(C2)C1NC(=O)c1nn(C2CCCCC2)c2c1CCCC2 (centres unmarked) [compound 28]	850 nM	7.5 nM	2030 nM	330 nM	–
CCOC(=O)C1CCc2c(c(C(=O)NC3C4(C)CCC(C4)C3(C)C)nn2C2CCCCC2)C1 (centres unmarked) [compound 67]	300 nM	15.5 nM	524 nM	–	23 nM
CCOC(=O)C1CCc2c(C(=O)NC3C4(C)CCC(C4)C3(C)C)nn(C3CCCCC3)c2C1 (centres unmarked) [compound 70]	125 nM	16 nM	1000 nM	–	45.9 nM
CCOC(=O)[C@@H]1CCc2c(c(C(=O)NC3C4(C)CCC(C4)C3(C)C)nn2-c2ccccc2)C1 (some centres unmarked) [compound 220]	–	230 nM	399 nM	–	220 nM
CCOC(=O)C1CCc2c(c(C(=O)NC3C4CC5CC(C4)CC3C5)nn2C2CCCCC2)C1 (centres unmarked) [compound 222]	280 nM	4.9 nM	194 nM	–	33 nM
CCOC(=O)C1CCc2c(c(C(=O)NC3C4CC5CC(C4)CC3C5)nn2Cc2ccccc2)C1 (centres unmarked) [compound 226]	7.9 nM	5.5 nM	520 nM	–	65 nM
C[C@H](NC(=O)c1nn(-c2ccc(Cl)cc2Cl)c2c1CCC/C2=C\c1ccc(Cl)cc1)c1ccccc1 [compound 294]	110 nM	700 nM	140 nM	–	–
C[C@H](NC(=O)/C=C/c1nn(Cc2ccccc2)c2c1CCCC2)c1ccccc1 [compound 305]	9800 nM	7200 nM	630 nM	–	–
C[C@H](NC(=O)c1nn(-c2ccc(Cl)cc2Cl)c2c1CCCC2=Cc1ccc(Cl)cc1)C1CCCCC1 [compound 321]	230 nM	600 nM	133 nM	–	–
CC12CCC(C1)C(C)(C)C2NC(=O)Nc1nn(Cc2ccccc2)c2c1CCCC2 (centres unmarked) [compound 338]	1350 nM	27 nM	6 nM	–	–
